From patent US11534443B2, “Quinazoline compounds, preparation method, use, and pharmaceutical composition thereof” (INSTITUTE OF MATERIA MEDICA, CHINESE ACADEMY OF MEDICAL …, priority 2016, dated 2022) come the findings set out here.

One assay has as its target PI3Kα (Homo sapiens (Human), UniProt P42336). The assay can be described thus: Biochemical evaluation of activity of PI3Kα (Kinase-Glo luminescence kinase assay). The settings on record: 25 μM ATP, 50 μM PIP2, 1 h at room temperature. On the procedure: The potency of compounds in the present intention against PI3Kα was assessed by in vitro kinase assay. The kinase activity of PI3Kα was determined by detecting the level of ADP produced in the kinase reaction with luciferase-based luminescence detection.
The Kinase-Glo™ Kinase Assay Kit was purchased from Promega. All assays were performed at room temperature using white OptiPlate™-384 well plate. The PI3Kα kinase was purchased from Invitrogen. The substrate was PIP2 from Invitrogen. The kinase buffer contained 50 mM Hepes (pH 7.5), 3 mM MgCl2, 100 mM NaCl, 1 mM EGTA, 0.03% CHAPS and 2 mM DTT. […] The substrate solution contained 100 μM PIP2 and 50 μM ATP. The test compound was diluted to 10 mM in 100% DMSO and serially diluted three times into ten different concentrations in 100% DMSO. The compound diluted in 100% DMSO was diluted 25-fold in 1×kinase buffer. 2.5 μL of the diluted compound solution and 2.5 μL PI3Kα kinase solution were added to each well of a 384-well plate. The reaction was initiated by addition of 5 μL substrate solution to each well. […] The plate was then covered and the reaction was allowed to proceed for one hour at room temperature, followed by the addition of 10 μL Kinase-Glo™ reagent to each well to stop the reaction.
The percentage of inhibition was calculated as follows: Inhibition %=100−(max−sample RLU)/(max−min)*100
wherein sample RLU was the luminescence reading for a given compound concentration, min was the reading of DMSO control, and max was the reading of the enzyme-free control. The IC50 value was calculated with the XLfit program in Excel.
(In general: Kinase-Glo measures the ATP left after a reaction by luminescence.)

Assay [1] deals with human lung cancer cell NCI-H460. The assay can be described thus: Tumor cell viability by MTT assay. In kind it is cell-based. The settings on record: Homo sapiens, NCI-H460, 96 h. On the procedure: After 24 hours, 100 μL of fresh medium containing different concentrations of test compounds and the corresponding solvent control was added into each well to a final concentration of DMSO less than 0.2%. Six to nine concentration groups were set for each test compound, and three parallel wells were set for each group. The plate was incubated at 5% CO2, 37° C. for 96 hours. 20 μL of freshly prepared PBS solution containing 5 mg/mL MTT was added to each well. The supernatant was discarded after incubation for another 4 hours. 150 μL DMSO was added to each well to dissolve the MTT formazan precipitate. After being mixed by a micro-oscillator, the optical density (OD) was measured at the wavelength of 570 nm, and the tumor cells treated with DMSO were used as a control group.
On the technique in general: Tetrazolium dyes change colour on reduction, which living cells bring about.

pIC50: −log10 of the molar value.

Sequence of PI3Kα (P42336 whole entry): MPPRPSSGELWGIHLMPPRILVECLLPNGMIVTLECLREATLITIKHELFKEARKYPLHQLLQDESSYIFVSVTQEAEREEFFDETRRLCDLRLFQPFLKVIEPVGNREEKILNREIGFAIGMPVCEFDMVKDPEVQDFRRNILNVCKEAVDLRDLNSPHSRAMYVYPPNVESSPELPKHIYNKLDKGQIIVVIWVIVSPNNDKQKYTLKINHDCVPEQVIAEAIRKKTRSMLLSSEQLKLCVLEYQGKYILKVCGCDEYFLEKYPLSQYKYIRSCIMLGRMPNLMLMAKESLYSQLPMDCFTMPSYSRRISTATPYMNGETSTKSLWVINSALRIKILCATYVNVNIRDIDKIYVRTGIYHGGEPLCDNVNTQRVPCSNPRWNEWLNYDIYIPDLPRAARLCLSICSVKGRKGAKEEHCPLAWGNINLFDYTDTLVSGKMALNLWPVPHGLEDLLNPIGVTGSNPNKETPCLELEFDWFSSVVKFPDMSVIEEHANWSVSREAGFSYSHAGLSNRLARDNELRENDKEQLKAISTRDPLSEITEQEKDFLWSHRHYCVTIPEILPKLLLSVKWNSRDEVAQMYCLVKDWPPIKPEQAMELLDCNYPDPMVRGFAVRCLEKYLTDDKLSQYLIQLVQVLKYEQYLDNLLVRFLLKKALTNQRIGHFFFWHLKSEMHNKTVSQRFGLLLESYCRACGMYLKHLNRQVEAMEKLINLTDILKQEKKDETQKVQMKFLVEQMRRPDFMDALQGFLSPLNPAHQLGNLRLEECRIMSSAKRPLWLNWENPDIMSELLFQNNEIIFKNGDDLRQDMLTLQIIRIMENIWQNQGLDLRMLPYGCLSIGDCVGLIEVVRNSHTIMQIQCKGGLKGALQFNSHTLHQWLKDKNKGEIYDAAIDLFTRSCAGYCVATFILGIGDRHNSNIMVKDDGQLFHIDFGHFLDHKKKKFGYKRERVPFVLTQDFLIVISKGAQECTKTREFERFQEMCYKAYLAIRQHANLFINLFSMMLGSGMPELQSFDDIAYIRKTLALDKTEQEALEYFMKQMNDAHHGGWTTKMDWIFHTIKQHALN
Sequence of PI3Kα (P27986 whole entry partner): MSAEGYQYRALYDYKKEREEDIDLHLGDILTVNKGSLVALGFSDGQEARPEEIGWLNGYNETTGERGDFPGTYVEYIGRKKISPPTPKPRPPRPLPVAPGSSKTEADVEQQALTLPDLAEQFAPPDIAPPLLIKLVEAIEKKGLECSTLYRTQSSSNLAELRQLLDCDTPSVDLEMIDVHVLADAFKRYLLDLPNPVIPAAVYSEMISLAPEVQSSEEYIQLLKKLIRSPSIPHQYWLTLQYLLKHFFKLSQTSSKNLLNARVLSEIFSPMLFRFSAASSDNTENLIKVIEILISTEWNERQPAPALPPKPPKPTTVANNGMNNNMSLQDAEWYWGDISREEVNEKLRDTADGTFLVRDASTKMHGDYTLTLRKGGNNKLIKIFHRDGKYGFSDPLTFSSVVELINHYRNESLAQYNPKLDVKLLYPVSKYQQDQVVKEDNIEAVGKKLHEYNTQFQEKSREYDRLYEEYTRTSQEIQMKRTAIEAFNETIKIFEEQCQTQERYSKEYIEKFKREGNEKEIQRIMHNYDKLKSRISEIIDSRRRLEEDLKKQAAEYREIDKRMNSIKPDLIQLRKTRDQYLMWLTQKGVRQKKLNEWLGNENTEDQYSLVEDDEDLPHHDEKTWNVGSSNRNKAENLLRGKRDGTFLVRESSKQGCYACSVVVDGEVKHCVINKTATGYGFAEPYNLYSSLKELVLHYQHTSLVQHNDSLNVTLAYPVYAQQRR

Consider `COc1ncc(-c2cc(OC3CCOCC3)c3nc(NCC4CC4)nc(C)c3c2)cc1NS(=O)(=O)c1ccc(F)cc1F` [Example 31, N-(5-(2-((cyclopropylmethyl)amino)-4-methyl-8-((tetrahydro-2H-pyran-4-yl)oxy)quinazolin-6-yl)-2-methoxypyridin-3-yl)-2,4-difluorobenzenesulfonamide], for which the negative logarithm of the IC50 (pIC50) (as a rule, the negative decadic logarithm of the IC50, by convention in mol/L) was 8.42 on PI3Kα and 6.39 in assay [1].

Take `CNc1nc(C)c2cc(-c3cnc(OC)c(NS(=O)(=O)c4ccc(F)cc4Cl)c3)cc(O[C@@H]3CCOC3)c2n1` [Example 33, (R)—N-(2-methoxy-5-(4-methyl-2-(methylamino)-8-((tetrahydrofuran-3-yl)oxy)quinazolin-6-yl)pyridin-3-yl)-2-chloro-4-fluorobenzenesulfonamide]: the values for the pIC50 (at PI3Kα; in assay [1]) were 8.77 and 7.00, respectively.

With `CNc1nc(C)c2cc(-c3cnc(OC)c(NS(=O)(=O)c4ccc(Cl)s4)c3)cc(O[C@@H]3CCOC3)c2n1` [Example 34, (R)—N-(2-methoxy-5-(4-methyl-2-(methylamino)-8-((tetrahydrofuran-3-yl)oxy)quinazolin-6-yl)pyridin-3-yl)-5-chlorothiophene-2-sulfonamide], the pIC50 against PI3Kα is 8.80; in assay [1], 6.96.

Turning to `CNc1nc(C)c2cc(-c3cnc(OC)c(NS(=O)(=O)c4ccc(F)cc4F)c3)cc(OCC3CCOCC3)c2n1` [Example 36, N-(2-methoxy-5-(4-methyl-2-(methylamino)-8-((tetrahydro-2H-pyran-4-yl)methoxy)quinazolin-6-yl)pyridin-3-yl)-2,4-difluoro-benzenesulfonamide], the pIC50 against PI3Kα is 8.66; in assay [1], 6.40.

For `CNc1nc(C)c2cc(-c3cnc(OC)c(NS(=O)(=O)c4ccc(F)cc4F)c3)cc(OC3CCOC(C)(C)C3)c2n1` (centres unmarked) [Example 37, N-(5-(8-((2,2-dimethyltetrahydro-2H-pyran-4-yl)oxy)-4-methyl-2-(methylamino)quinazolin-6-yl)-2-methoxypyridin-3-yl)-2,4-difluorobenzenesulfonamide], the pIC50 against PI3Kα is 8.64; in assay [1], 6.60.

With `CNc1nc(C)c2cc(-c3cnc(OC)c(NS(=O)(=O)c4ccc(F)cc4F)c3)cc(OCC3CCOC3)c2n1` (centres unmarked) [Example 38, N-(2-methoxy-5-(4-methyl-2-(methylamino)-8-((tetrahydrofuran-3-yl)methoxy)quinazolin-6-yl)pyridin-3-yl)-2,4-difluorobenzenesulfonamide], the pIC50 was 8.64 against PI3Kα and 6.51 in assay [1].

Take `CNc1nc(C)c2cc(-c3cnc(OC)c(NS(=O)(=O)c4ccc(F)cc4F)c3)cc(OC3CCCCC3)c2n1` [Example 39, N-(5-(8-(cyclohexyloxy)-4-methyl-2-(methylamino)quinazolin-6-yl)-2-methoxypyridin-3-yl)-2,4-difluorobenzenesulfonamide]: the negative-log IC50 (pIC50) was 7.82 at PI3Kα and 5.77 in assay [1].

With `COc1ncc(-c2cc(OC3CCOCC3)c3nc(NC(C)=O)nc(C)c3c2)cc1NS(=O)(=O)c1ccc(F)cc1F` [Example 42, N-(6-(5-(2,4-difluorophenylsulfonamido)-6-methoxypyridin-3-yl)-4-methyl-8-((tetrahydro-2H-pyran-4-yl)oxy)quinazolin-2-yl)acetamide], the pIC50 is 8.96 against PI3Kα and 6.28 in assay [1].

As for `COc1ncc(-c2cc(OC3CCOCC3)c3nc(NC(C)=O)nc(C)c3c2)cc1NS(C)(=O)=O` [Example 43, N-(6-(6-methoxy-5-(methylsulfonamido)pyridin-3-yl)-4-methyl-8-((tetrahydro-2H-pyran-4-yl)oxy)quinazolin-2-yl)acetamide], the pIC50 on PI3Kα was 8.00; in assay [1] it was 5.40.

With `COc1ncc(-c2cc(OC3CCOCC3)c3ncnc(C)c3c2)cc1NS(=O)(=O)c1ccc(F)cc1Cl` [Example 45, N-(2-methoxy-5-(4-methyl-8-((tetrahydro-2H-pyran-4-yl)oxy)quinazolin-6-yl)pyridin-3-yl)-2-chloro-4-fluorobenzenesulfonamide], the pIC50 is 9.04 at PI3Kα and 7.35 in assay [1].

`COc1ncc(-c2cc(OC3CCOCC3)c3ncnc(C)c3c2)cc1NS(=O)(=O)c1ccc(Cl)s1` [Example 46, N-(2-methoxy-5-(4-methyl-8-((tetrahydro-2H-pyran-4-yl)oxy)quinazolin-6-yl)pyridin-3-yl)-5-chlorothiophene-2-sulfonamide]: the negative logarithm of the IC50 (pIC50) was 9.15 against PI3Kα and 7.54 in assay [1].

As to `COc1ncc(-c2cc(OC3CCOCC3)c3ncnc(C)c3c2)cc1NS(C)(=O)=O` [Example 47, N-(2-methoxy-5-(4-methyl-8-((tetrahydro-2H-pyran-4-yl)oxy)quinazolin-6-yl)pyridin-3-yl)methanesulfonamide], the negative logarithm of the IC50 (pIC50) on PI3Kα was 8.85; in assay [1], 6.24.

Turning to `COc1ncc(-c2cc(OC3CCOCC3)c3ncnc(C)c3c2)cc1NS(=O)(=O)C1CC1` [Example 48, N-(2-methoxy-5-(4-methyl-8-((tetrahydro-2H-pyran-4-yl)oxy)quinazolin-6-yl)pyridin-3-yl)cyclopropanesulfonamide], the pIC50 was 8.68 on PI3Kα and 6.55 in assay [1].

For `COc1ncc(-c2cc(O[C@@H]3CCOC3)c3ncnc(C)c3c2)cc1NS(=O)(=O)c1ccc(F)cc1F` [Example 49, (R)—N-(2-methoxy-5-(4-methyl-8-((tetrahydrofuran-3-yl)oxy)quinazolin-6-yl)pyridin-3-yl)-2,4-difluorobenzenesulfonamide], the negative-log IC50 (pIC50) on PI3Kα was 9.12; in assay [1] it was 7.47.

Turning to `COc1ncc(-c2cc(O[C@@H]3CCOC3)c3ncnc(C)c3c2)cc1NS(C)(=O)=O` [Example 50, (R)—N-(2-methoxy-5-(4-methyl-8-((tetrahydrofuran-3-yl)oxy)quinazolin-6-yl)pyridin-3-yl)methanesulfonamide], the negative-log IC50 (pIC50) was 8.66 against PI3Kα and 6.10 in assay [1].

Take `COc1ncc(-c2cc(O[C@H]3CCOC3)c3ncnc(C)c3c2)cc1NS(=O)(=O)c1ccc(F)cc1F` [Example 51, (S)—N-(2-methoxy-5-(4-methyl-8-((tetrahydrofuran-3-yl)oxy)quinazolin-6-yl)pyridin-3-yl)-2,4-difluorobenzenesulfonamide]: the negative logarithm of the IC50 (pIC50) at PI3Kα is 9.14; in assay [1], 7.49.

In the case of `COc1ncc(-c2cc(O[C@H]3CCOC3)c3ncnc(C)c3c2)cc1NS(C)(=O)=O` [Example 52, (S)—N-(2-methoxy-5-(4-methyl-8-((tetrahydrofuran-3-yl)oxy)quinazolin-6-yl)pyridin-3-yl)methanesulfonamide], the negative-log IC50 (pIC50) is 8.68 against PI3Kα and 6.17 in assay [1].

Regarding `COc1ncc(-c2cc(OCC3CCOCC3)c3ncnc(C)c3c2)cc1NS(=O)(=O)c1ccc(F)cc1F` [Example 53, N-(2-methoxy-5-(4-methyl-8-((tetrahydro-2H-pyran-4-yl)methoxy)quinazolin-6-yl)pyridin-3-yl)-2,4-difluorobenzenesulfonamide], the values for the pIC50 (on PI3Kα; in assay [1]) were 9.14 and 7.42, respectively.

Consider `COc1ncc(-c2cc(OC3CCCCC3)c3ncnc(C)c3c2)cc1NS(=O)(=O)c1ccc(F)cc1F` [Example 55, N-(5-(8-(cyclohexyloxy)-4-methylquinazolin-6-yl)-2-methoxypyridin-3-yl)-2,4-difluorobenzenesulfonamide], for which the pIC50 was 8.77 at PI3Kα and 7.01 in assay [1].
